The values that follow come from publication PMC9506414, “Novel 2,6,9-Trisubstituted Purines as Potent CDK Inhibitors Alleviating Trastuzumab-Resistance of HER2-Positive Breast Cancers” (Pharmaceuticals, 2022).

One data set has as its target CYP2D6 (Homo sapiens, UniProt P10635). The experiment in a line: CYP inhibition. Format: in vitro ADME. The protocol:
Table 6 In vitro liver metabolic stability and activity against CYPs of potent analogues. | column: CYP % Activity at 10 μM / 2D6

The target in the next data set is CDK12/CyclinK (Homo sapiens, UniProt Q9NYV4). Nature of the data set: In vitro CDK12/cyclinK kinase assay. Further details: purchased Reaction Biology Corp. (CRO that ran the assay). In kind it is biochemical. Conditions: Table 5; means and standard deviations from three independent assays; read-out: CDK12/CyclinK (IC50/μM). The procedure:
In vitro CDK12/cyclinK assays for all compounds and in vitro kinome-wide inhibition profiling of 30d at 10 μM were performed by a CRO company (Reaction Biology Corp., San Diego, CA, USA).

The target of a further data set is CYP3A4 (Homo sapiens, UniProt P08684). Nature of the data set: CYP inhibition. Format: in vitro ADME. The protocol: Table 6 In vitro liver metabolic stability and activity against CYPs of potent analogues. | column: CYP % Activity at 10 μM / 3A4
In another data set the target is CYP2C19 (Homo sapiens, UniProt P33261). The experiment in a line: CYP inhibition. Format: in vitro ADME. The procedure:
Table 6 In vitro liver metabolic stability and activity against CYPs of potent analogues. | column: CYP % Activity at 10 μM / 2C19

In the next data set the target is T1, CYP1A2 (Homo sapiens, UniProt P05177).
T1 sequence (P05177 1-516): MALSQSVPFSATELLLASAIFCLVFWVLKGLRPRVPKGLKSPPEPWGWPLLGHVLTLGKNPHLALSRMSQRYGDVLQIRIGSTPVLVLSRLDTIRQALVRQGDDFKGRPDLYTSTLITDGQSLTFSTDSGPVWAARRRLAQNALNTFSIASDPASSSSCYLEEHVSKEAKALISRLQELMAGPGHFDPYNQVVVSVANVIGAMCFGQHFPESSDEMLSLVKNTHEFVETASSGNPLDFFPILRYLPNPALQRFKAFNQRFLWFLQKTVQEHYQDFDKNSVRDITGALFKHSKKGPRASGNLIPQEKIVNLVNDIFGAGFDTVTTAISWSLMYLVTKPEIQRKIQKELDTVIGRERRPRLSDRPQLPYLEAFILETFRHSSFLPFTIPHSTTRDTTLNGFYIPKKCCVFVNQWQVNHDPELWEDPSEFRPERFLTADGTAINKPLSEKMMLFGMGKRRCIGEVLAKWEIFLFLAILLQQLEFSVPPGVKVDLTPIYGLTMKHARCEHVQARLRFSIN
Nature of the data set: CYP inhibition. In kind it is in vitro ADME. The protocol: Table 6 In vitro liver metabolic stability and activity against CYPs of potent analogues. | column: CYP % Activity at 10 μM / 1A2

In another data set the target is CYP2C9 (Homo sapiens, UniProt P11712). Nature of the data set: CYP inhibition. In kind it is in vitro ADME. The protocol: Table 6 In vitro liver metabolic stability and activity against CYPs of potent analogues. | column: CYP % Activity at 10 μM / 2C9
For a further data set, the system named is SK-Br3 cells. The experiment in a line: Antiproliferation assay (Cell-titer Glo, 72 h). In kind it is cell-based. Conditions: Homo sapiens, SK-BR-3; 72 h; means and standard deviations from three independent assays; read-out: SK-Br3 (GI50/μM). An outline of the steps: (§1)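 Cells in RPMI/10% FBS were seeded at 5000 (SK-Br3) or 1000 (HCC-1954) per well and allowed 24 h to settle. Compounds were pin-transferred as 3-fold, 10-point duplicate series from a 10 mM stock and incubated 72 h at 37 °C. Viability was read by CellTiter-Glo luminescence and IC50 obtained by curve fitting.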

Another data set concerns HCC1954 cells. Nature of the data set: Antiproliferation assay (Cell-titer Glo, 72 h). To be noted: Homo sapiens, 72 h, means and standard deviations from three independent assays, read-out: HCC1954 (GI50/μM). Format: cell-based. An outline of the steps: as §1
Data set [1] can be described thus: In vitro liver microsomal stability. In kind it is in vitro ADME. Conditions: liver microsomes, pH 7.4, 30 m at 37 °C with NADPH regeneration system. The protocol:
Each compound (final 1 μM, duplicated) was added to each 0.1 M PBS solution (pH 7.4) containing liver microsome of three different species (human, dog, mouse). After a brief (5 m) incubation at 37 °C, the NADPH regeneration system (Promega Corp., Madison, WI, USA) was added, then the mixture was incubated at 37 °C for 30 m. The reaction was terminated by adding acetonitrile containing an internal standard (chlorpropamide), then the mixture was centrifuged at 15,000 rpm, 4 °C for 5 m. The supernatant solution was injected to LC/MS/MS system (TSQ Vantage Triple-Stage Quadrupole Mass Spectrometer, ThermoFisher Scientific, Waltham, MA, USA). The remaining substrates were analyzed with Xcalibur 4.4 s/w using an MRM (multiple reaction monitoring) quantitation mode.

Sequence of CYP2C9 (P11712 whole entry): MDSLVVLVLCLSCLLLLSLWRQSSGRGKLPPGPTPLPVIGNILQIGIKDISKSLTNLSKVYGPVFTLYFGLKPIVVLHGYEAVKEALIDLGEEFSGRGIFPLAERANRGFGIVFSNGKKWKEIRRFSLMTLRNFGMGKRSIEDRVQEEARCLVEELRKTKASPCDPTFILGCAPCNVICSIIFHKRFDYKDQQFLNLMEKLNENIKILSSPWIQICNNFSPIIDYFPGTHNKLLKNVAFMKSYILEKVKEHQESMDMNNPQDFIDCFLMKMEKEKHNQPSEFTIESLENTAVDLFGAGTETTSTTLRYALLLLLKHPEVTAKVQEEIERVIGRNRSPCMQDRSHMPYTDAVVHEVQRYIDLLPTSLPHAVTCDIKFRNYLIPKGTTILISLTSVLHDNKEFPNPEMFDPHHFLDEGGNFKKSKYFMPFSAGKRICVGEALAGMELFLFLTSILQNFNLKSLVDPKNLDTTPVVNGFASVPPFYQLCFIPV
Sequence of CYP3A4 (P08684 whole entry): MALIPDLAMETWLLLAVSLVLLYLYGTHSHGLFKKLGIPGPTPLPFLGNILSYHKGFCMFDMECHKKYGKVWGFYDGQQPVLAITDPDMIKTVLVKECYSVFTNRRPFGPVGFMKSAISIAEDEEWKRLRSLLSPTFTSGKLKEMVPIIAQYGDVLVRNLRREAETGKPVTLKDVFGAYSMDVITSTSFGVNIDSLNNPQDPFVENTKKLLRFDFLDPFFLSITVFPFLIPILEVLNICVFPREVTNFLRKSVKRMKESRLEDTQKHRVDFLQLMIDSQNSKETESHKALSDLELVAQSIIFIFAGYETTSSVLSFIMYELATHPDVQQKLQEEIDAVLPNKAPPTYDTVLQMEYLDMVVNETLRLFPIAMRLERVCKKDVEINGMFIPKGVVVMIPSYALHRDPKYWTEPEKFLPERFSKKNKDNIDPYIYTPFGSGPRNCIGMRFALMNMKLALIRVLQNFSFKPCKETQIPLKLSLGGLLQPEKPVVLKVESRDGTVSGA
Sequence of CYP2C19 (P33261 whole entry): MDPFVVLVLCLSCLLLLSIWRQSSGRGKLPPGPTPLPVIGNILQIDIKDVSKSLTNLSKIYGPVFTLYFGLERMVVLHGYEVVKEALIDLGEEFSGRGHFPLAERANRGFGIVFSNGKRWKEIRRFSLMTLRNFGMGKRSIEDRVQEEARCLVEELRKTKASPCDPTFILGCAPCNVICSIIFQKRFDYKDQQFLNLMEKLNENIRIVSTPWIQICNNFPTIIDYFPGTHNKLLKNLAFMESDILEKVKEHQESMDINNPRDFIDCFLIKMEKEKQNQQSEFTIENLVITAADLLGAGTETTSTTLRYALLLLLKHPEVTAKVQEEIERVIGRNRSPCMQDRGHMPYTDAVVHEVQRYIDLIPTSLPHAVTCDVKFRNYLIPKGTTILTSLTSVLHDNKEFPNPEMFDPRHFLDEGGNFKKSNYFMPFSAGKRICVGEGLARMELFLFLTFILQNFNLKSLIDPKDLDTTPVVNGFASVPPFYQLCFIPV
Sequence of CDK12/CyclinK (Q9NYV4 whole entry): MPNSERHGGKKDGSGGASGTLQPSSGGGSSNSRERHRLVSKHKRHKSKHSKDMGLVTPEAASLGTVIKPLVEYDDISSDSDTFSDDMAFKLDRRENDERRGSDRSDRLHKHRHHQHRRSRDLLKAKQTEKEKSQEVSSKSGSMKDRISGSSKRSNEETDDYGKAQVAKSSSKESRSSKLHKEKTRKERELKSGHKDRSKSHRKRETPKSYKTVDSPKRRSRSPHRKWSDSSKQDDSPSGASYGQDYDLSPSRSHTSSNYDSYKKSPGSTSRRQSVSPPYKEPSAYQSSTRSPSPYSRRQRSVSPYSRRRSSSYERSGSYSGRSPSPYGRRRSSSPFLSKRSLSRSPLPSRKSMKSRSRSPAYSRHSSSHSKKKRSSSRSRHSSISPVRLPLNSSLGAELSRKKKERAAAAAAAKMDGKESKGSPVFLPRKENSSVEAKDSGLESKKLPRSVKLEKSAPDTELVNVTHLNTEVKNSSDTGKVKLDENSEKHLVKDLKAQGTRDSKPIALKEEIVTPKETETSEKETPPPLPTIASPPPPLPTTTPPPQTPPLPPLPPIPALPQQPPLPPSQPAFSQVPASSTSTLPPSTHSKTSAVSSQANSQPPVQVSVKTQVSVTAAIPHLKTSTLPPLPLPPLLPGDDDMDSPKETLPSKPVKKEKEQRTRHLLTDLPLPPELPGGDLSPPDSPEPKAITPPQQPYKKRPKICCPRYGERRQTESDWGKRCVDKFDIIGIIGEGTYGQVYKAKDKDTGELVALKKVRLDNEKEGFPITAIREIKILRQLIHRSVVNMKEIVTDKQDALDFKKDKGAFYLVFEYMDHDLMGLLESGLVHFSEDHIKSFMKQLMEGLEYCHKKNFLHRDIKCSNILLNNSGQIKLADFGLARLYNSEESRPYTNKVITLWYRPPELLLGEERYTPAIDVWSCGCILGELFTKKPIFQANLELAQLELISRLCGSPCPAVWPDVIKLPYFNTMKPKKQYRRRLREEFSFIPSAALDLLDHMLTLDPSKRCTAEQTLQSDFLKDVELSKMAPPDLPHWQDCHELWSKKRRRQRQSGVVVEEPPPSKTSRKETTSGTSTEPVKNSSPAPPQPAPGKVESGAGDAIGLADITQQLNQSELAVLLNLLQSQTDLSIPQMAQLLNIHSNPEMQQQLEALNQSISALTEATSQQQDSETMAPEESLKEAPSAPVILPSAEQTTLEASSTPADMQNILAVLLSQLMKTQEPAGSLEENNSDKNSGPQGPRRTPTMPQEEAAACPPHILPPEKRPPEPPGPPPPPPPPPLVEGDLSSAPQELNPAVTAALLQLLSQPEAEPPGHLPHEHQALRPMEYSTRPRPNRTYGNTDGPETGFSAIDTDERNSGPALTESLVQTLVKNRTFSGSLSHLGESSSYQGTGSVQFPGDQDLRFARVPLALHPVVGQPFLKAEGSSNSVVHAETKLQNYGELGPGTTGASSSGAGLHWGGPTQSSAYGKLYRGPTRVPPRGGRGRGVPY
Sequence of CDK12/CyclinK (O75909 whole entry partner): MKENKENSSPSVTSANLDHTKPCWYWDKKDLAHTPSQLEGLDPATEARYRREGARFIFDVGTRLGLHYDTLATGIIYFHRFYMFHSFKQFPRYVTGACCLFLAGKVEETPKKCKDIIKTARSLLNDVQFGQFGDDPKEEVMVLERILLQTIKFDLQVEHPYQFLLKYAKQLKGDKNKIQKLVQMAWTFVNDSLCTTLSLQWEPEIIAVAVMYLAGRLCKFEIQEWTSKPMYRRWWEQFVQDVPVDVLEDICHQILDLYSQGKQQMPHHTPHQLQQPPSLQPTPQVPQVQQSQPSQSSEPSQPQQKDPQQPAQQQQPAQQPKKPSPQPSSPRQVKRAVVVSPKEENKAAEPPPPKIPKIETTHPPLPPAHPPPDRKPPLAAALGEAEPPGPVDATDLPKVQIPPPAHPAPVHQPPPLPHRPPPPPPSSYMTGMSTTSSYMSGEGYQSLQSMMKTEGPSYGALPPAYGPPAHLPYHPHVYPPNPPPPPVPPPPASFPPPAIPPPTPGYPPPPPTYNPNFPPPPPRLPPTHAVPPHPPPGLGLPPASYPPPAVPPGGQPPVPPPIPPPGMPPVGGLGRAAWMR
Sequence of CYP2D6 (P10635 whole entry): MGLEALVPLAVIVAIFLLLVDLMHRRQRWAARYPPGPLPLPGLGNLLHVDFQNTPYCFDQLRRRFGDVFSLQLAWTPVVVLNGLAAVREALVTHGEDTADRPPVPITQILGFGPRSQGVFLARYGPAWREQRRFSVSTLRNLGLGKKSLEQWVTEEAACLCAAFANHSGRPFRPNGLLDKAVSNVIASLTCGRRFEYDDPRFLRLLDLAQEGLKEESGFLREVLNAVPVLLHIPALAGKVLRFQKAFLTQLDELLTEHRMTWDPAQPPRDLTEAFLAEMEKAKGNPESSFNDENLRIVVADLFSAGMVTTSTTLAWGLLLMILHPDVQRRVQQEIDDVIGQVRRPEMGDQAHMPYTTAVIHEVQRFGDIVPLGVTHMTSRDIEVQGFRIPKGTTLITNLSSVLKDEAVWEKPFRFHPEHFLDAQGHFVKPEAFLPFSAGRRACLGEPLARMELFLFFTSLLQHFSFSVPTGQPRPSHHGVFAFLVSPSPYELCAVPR

As for `CCn1cnc2c(NCc3ccc(-c4ccnc(C)c4)nc3)nc(-c3cncnc3)nc21` [Compound 30c, 9-Ethyl-N-((2′-methyl-[2,4′-bipyridin]-5-yl)methyl)-2-(pyrimidin-5-yl)-9H-purin-6-amine], the “CYP % Activity at 10 μM 2D6” value at CYP2D6 is 88.8%. Moreover, the IC50 at CDK12/CyclinK stood at 0.064 ± 0.012 µM. The “CYP % Activity at 10 μM 3A4” value at CYP3A4 stood at 31.8%. At CYP2C19, the “CYP % Activity at 10 μM 2C19” value amounted to 73.9%. On CYP1A2, the “CYP % Activity at 10 μM 1A2” value is given as 68.6%. Also, at CYP2C9, the “CYP % Activity at 10 μM 2C9” value is given as 67.5%. In addition, the GI50 stood at 0.189 ± 0.057 µM in the data set on SK-Br3 cells and 0.157 ± 0.022 µM in the data set with HCC1954 cells. The figures for the amount remaining at 30 min, 1 μM in [1] (dog), in data set [1] (human) and in [1] (mouse) were 79.5%, 27.3% and 34%, respectively.
